Biological target: T1, hCAII (Homo sapiens, UniProt P00918+Q96SW2)
T1 construct: HEK293 cells, a line known to abundantly express hCAII; endogenous in cells; host or cells: HEK293
Assay: single-point hCAII degradation screen in HEK293 cells, western blot
Type: cell-based
Conditions: 5 μM, 24 h; for activity in single-point screen (hCAII degradation): vs DMSO vehicle
Procedure: Following the confirmation of candidate hCAII’s in vitro activity, candidate degraders 1–10 were evaluated for their degradation of hCAII using HEK293 cells, a line known to abundantly express hCAII.[48] To obtain a preliminary evaluation of the activity of these compounds, an initial single-point screen was performed with HEK293 cells dosed with individual degrader candidates at a final concentration of 5 μM for 24 h prior to cell lysis. The relative abundance of hCAII in whole cell lysates was then evaluated via western blot analysis (see the Experimental Section for details).
Figure 2 Single-point activity screen of degrader candidates 1–10. Western blot analysis of HEK293 cells treated with degrader candidate (5 μM final concentration) or vehicle (DMSO) for 24 h. […] Degraders 4 and 5 were identified as active from this screen. Full images of the western blots are provided within the Supporting Information (Figure S1).
HEK293 cells were cultured in Dulbecco’s modified Eagle’s medium (DMEM, Gibco, 4.5 g/L glucose) supplemented with 10% fetal bovine serum (FBS), 1% sodium pyruvate, and 1% penicillin/streptomycin. Cells were grown at 37 °C in a humidified 5% CO2 atmosphere and regularly tested for mycoplasma.
After reaching 90% confluency, HEK293 cells were trypsinized, counted, and plated with 2 mL media at 2 × 10^6 cells per well on a tissue-culture-treated, 6-well plate. At the appropriate number of hours before reaching ∼90% confluency, cells were treated with DMSO solutions of the appropriate compounds (final concentration 0.5% DMSO per well). Upon reaching 90% confluency, typically 72 h, culture media were removed and the cells were washed with cold Dulbecco’s phosphate-buffered saline (DPBS). Lysis buffer, composed of cell lysis buffer (Cell Signaling Technology, 9803), protease inhibitor cocktail (Cell Signaling Technology, 5872), and 1 mM phenylmethylsulfonylfluoride, was added to each well, and the plates were rocked at 4 °C for 20 min. Cells were then scraped from the bottom of the plates, and the supernatant was collected after spinning down at 14,000g at 4 °C for 10 min and frozen at −80 °C. Lysates were thawed on ice, and the total protein concentration was measured using a Pierce bicinchoninic acid protein assay (Thermo Fisher Scientific, 23225). […] The immunoblot was then analyzed using the ImageJ software as an 8-bit image. The brightness and contrast of the image were adjusted, and the integrated density was calculated for each protein band using the gel lane analysis tool. Relative hCAII expression was calculated by normalizing the hCAII/β-actin ratio in compound-treated wells to the hCAII/β-actin ratio in vehicle (DMSO)-treated wells and indicated as “hCAII Abundance (% DMSO)”.

| SMILES | protein degradation quantified by western blot [%] | activity in single-point screen (hCAII degradation) |
| --- | --- | --- |
| NS(=O)(=O)c1ccc(C(=O)NCCCOCCCCOCCCNc2cccc3c2C(=O)N(C2CCC(=O)NC2=O)C3=O)cc1 (stereo not shown) [Compound 4, N-(3-(4-(3-((2-(2,6-Dioxopiperidin-3-yl)-1,3-dioxoisoindolin-4-yl)amino)propoxy)butoxy)propyl)-4-sulfamoylbenzamide] | 64 | active |
| NS(=O)(=O)c1ccc(C(=O)NCCCOCCOCCOCCCNc2cccc3c2C(=O)N(C2CCC(=O)NC2=O)C3=O)cc1 (stereo not shown) [Compound 5, N-(3-(2-(2-(3-((2-(2,6-Dioxopiperidin-3-yl)-1,3-dioxoisoindolin-4-yl)amino)propoxy)ethoxy)ethoxy)propyl)-4-sulfamoylbenzamide] | 85 | active |

From paper PMC9969396, “Development of Human Carbonic Anhydrase II Heterobifunctional Degraders” (Journal of Medicinal Chemistry, 2023)
